Numbers after ± are expanded uncertainties.
Assay: molar heat capacity at constant pressure; xn = mol fraction of the nth substance listed
Settings: 100 kPa, Liquid, Small sample (50 mg) DSC

O=C(CO)[C@@H](O)[C@H](O)[C@H](O)CO [D-fructose] + C[N+](C)(C)CCO.[Cl-]
x2 = 0.67
Settings	molar heat capacity at constant pressure [J/K/mol]
298.15 K	311.5 ± 7.6
300.65 K	313.8 ± 7.7
303.15 K	316.7 ± 7.8
305.65 K	319.4 ± 7.8
308.15 K	322 ± 7.9
310.65 K	324.2 ± 7.9
313.15 K	326.2 ± 8
315.65 K	328.3 ± 8
318.15 K	330.5 ± 8.1
320.65 K	332.6 ± 8.2
323.15 K	334.1 ± 8.2
325.65 K	334.9 ± 8.2
328.15 K	335.8 ± 8.2
330.65 K	336.1 ± 8.2
333.15 K	335.8 ± 8.2
335.65 K	335.7 ± 8.2
338.15 K	335.2 ± 8.2
340.65 K	334.7 ± 8.2
343.15 K	335.2 ± 8.2
345.65 K	335.8 ± 8.2
348.15 K	336.6 ± 8.2
350.65 K	337.7 ± 8.3
353.15 K	340.1 ± 8.3

C[N+](C)(C)CCO.[Cl-] [choline chloride] + O=C[C@H](O)[C@@H](O)[C@H](O)[C@H](O)CO
x1 = 0.67
Settings	molar heat capacity at constant pressure [J/K/mol]
298.15 K	327.5 ± 8
300.65 K	329.1 ± 8.1
303.15 K	330.7 ± 8.1
305.65 K	332.4 ± 8.1
308.15 K	334.5 ± 8.2
310.65 K	336.7 ± 8.3
313.15 K	338.6 ± 8.3
315.65 K	340.6 ± 8.3
318.15 K	342.5 ± 8.4
320.65 K	344.5 ± 8.4
323.15 K	346 ± 8.5
325.65 K	347.2 ± 8.5
328.15 K	348.4 ± 8.5
330.65 K	349.5 ± 8.6
333.15 K	350.6 ± 8.6
335.65 K	350.9 ± 8.6
338.15 K	351.4 ± 8.6
340.65 K	352 ± 8.6
343.15 K	352.6 ± 8.6
345.65 K	353.8 ± 8.7
348.15 K	354.2 ± 8.7
350.65 K	354.4 ± 8.7
353.15 K	356.3 ± 8.7

C[N+](C)(C)CCO.[Cl-] [choline chloride] + Oc1ccccc1
x1 = 0.25
Settings	molar heat capacity at constant pressure [J/K/mol]
298.15 K	219.3 ± 5.4
300.65 K	220.3 ± 5.4
303.15 K	221.2 ± 5.4
305.65 K	222.3 ± 5.4
308.15 K	223.3 ± 5.5
310.65 K	224.2 ± 5.5
313.15 K	225.1 ± 5.5
315.65 K	225.8 ± 5.5
318.15 K	226.6 ± 5.6
320.65 K	227.1 ± 5.6
323.15 K	227.9 ± 5.6
325.65 K	228.6 ± 5.6
328.15 K	229.3 ± 5.6
330.65 K	230.2 ± 5.6
333.15 K	231.1 ± 5.7
335.65 K	231.9 ± 5.7
338.15 K	232.6 ± 5.7
340.65 K	233.1 ± 5.7
343.15 K	233.5 ± 5.7
345.65 K	234.3 ± 5.7
348.15 K	234.5 ± 5.7
350.65 K	235 ± 5.8
353.15 K	236.8 ± 5.8
